This assay has as its target PARP7 (Homo sapiens (Human), UniProt Q7Z3E1). The assay is described as follows: Enzymatic assay for inhibition of PARP7: TR-FRET displacement of biotinylated Probe A from the TIPARP active site. Type of assay: binding. To be noted: Table A-1. Summed up:
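Titrated compounds compete with the biotinylated probe; after an additional 30 min incubation at 25° C, time-delayed fluorescence (90 μs) is measured. Inhibition curves use a Hill coefficient that normally floats but may be held at 1.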
A general note: Time-resolved FRET reads energy transfer from a long-lived donor to a nearby acceptor.

Our source for the IC50 values is patent US10550105B2 (Ribon Therapeutics Inc., priority 2018, dated 2020).

Sequence of PARP7 (Q7Z3E1 whole entry): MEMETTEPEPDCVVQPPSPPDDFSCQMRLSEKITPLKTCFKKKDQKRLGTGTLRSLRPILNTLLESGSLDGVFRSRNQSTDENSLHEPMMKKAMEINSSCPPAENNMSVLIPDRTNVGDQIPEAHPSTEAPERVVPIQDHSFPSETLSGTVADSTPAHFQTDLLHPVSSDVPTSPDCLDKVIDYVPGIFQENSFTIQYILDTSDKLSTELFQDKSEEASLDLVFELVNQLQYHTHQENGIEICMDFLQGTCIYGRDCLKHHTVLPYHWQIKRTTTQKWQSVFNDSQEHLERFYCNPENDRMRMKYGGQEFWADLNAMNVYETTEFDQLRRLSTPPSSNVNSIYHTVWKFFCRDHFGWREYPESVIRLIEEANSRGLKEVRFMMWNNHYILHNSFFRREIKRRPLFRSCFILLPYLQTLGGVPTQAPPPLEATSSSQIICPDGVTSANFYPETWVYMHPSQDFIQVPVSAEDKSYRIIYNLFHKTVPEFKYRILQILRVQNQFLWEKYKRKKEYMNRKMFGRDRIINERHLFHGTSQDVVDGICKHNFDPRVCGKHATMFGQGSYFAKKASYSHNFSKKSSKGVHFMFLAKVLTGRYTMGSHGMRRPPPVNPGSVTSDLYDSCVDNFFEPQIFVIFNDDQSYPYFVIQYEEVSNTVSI

The compound `O=c1[nH]ncc(N2Cc3cccc(N4CCCC4)c3C2)c1C(F)(F)F` [Example 284, 5-(4-(Pyrrolidin-1-yl)isoindolin-2-yl)-4-(trifluoromethyl)pyridazin-3(2H)-one] showed an IC50 of less than 100 nM.
Then `CN(C)C1CCN(c2cccc3c2CN(c2cn[nH]c(=O)c2C(F)(F)F)C3)C1` (stereo not shown) [Example 285, 5-(4-(3-(Dimethylamino)pyrrolidin-1-yl)isoindolin-2-yl)-4-(trifluoromethyl)pyridazin-3(2H)-one], with less than 100 nM.
For `O=c1[nH]ncc(N2Cc3c(F)ccc(OCCN4CCOCC4)c3C2)c1C(F)(F)F` [Example 286, 5-(4-Fluoro-7-(2-morpholinoethoxy)isoindolin-2-yl)-4-(trifluoromethyl)pyridazin-3(2H)-one] the value was less than 100 nM.
Compound `CC(C)c1c(N2Cc3ccc(OC4CCCNC4)cc3C2)cn[nH]c1=O` (stereo not shown) [Example 287, 4-Isopropyl-5-(5-(piperidin-3-yloxy)isoindolin-2-yl)pyridazin-3(2H)-one] gave a half-maximal inhibitory concentration (IC50) not below 1000 nM.
Then `O=c1[nH]ncc(N2Cc3ccc(O[C@@H]4CCCNC4)cc3C2)c1C(F)(F)F` [Example 288, (R)-5-(5-(Piperidin-3-yloxy)isoindolin-2-yl)-4-(trifluoromethyl)pyridazin-3(2H)-one], with less than 100 nM; and `O=c1[nH]ncc(N2Cc3ccc(O[C@H]4CCCNC4)cc3C2)c1C(F)(F)F` [Example 289, (S)-5-(5-(Piperidin-3-yloxy)isoindolin-2-yl)-4-(trifluoromethyl)pyridazin-3(2H)-one], with less than 100 nM.
For `O=c1[nH]ncc(N2Cc3cccc(NC4CCOCC4)c3C2)c1C(F)(F)F` [Example 290, 5-(4-((Tetrahydro-2H-pyran-4-yl)amino)isoindolin-2-yl)-4-(trifluoromethyl)pyridazin-3(2H)-one] the value was 100 to 1000 nM; for `O=c1[nH]ncc(N2Cc3c(F)ccc(OC4CCNCC4)c3C2)c1C(F)(F)F` [Example 291, 5-(4-Fluoro-7-(piperidin-4-yloxy)isoindolin-2-yl)-4-(trifluoromethyl)pyridazin-3(2H)-one], 100 to 1000 nM; for `CC(C)c1c(N2Cc3ccc(O[C@@H]4CCCNC4)cc3C2)cn[nH]c1=O` [Example 292, (R)-4-Isopropyl-5-(5-(piperidin-3-yloxy)isoindolin-2-yl)pyridazin-3(2H)-one], not below 1000 nM.
Then `CC(C)c1c(N2Cc3ccc(O[C@H]4CCCNC4)cc3C2)cn[nH]c1=O` [Example 293, (S)-4-Isopropyl-5-(5-(piperidin-3-yloxy)isoindolin-2-yl)pyridazin-3(2H)-one], with not below 1000 nM.
`CC(=O)N1CCN(c2cccc3c2CN(c2cn[nH]c(=O)c2C(F)(F)F)C3)CC1` [Example 294, 5-(4-(4-Acetylpiperazin-1-yl)isoindolin-2-yl)-4-(trifluoromethyl)pyridazin-3(2H)-one] displayed an IC50 of less than 100 nM.
`O=c1[nH]ncc(N2Cc3cccc(N4CCNCC4)c3C2)c1C(F)(F)F` [Example 295, 5-(4-(Piperazin-1-yl)isoindolin-2-yl)-4-(trifluoromethyl)pyridazin-3(2H)-one] registered a half-maximal inhibitory concentration (IC50) of 100 to 1000 nM.
Then `NC1CCN(c2cccc3c2CN(c2cn[nH]c(=O)c2C(F)(F)F)C3)CC1` [Example 296, 5-(4-(4-Aminopiperidin-1-yl)isoindolin-2-yl)-4-(trifluoromethyl)pyridazin-3(2H)-one], with 100 to 1000 nM; and `O=c1[nH]ncc(N2Cc3cccc(NC4CCNCC4)c3C2)c1C(F)(F)F` [Example 297, 5-(4-(Piperidin-4-ylamino)isoindolin-2-yl)-4-(trifluoromethyl)pyridazin-3(2H)-one], with 100 to 1000 nM.
Turning to `CC1(C)CC(Nc2cccc3c2CN(c2cn[nH]c(=O)c2C(F)(F)F)C3)CC(C)(C)N1` [Example 300, 5-(4-((2,2,6,6-Tetramethylpiperidin-4-yl)amino)isoindolin-2-yl)-4-(trifluoromethyl)pyridazin-3(2H)-one], the IC50 lay in the range of 100 to 1000 nM.
The compound `NC1CCCN(c2cccc3c2CN(c2cn[nH]c(=O)c2C(F)(F)F)C3)C1` (stereo not shown) [Example 301, 5-(4-(3-Aminopiperidin-1-yl)isoindolin-2-yl)-4-(trifluoromethyl)pyridazin-3(2H)-one] returned an IC50 of 100 to 1000 nM.
For `CN(c1cccc2c1CN(c1cn[nH]c(=O)c1C(F)(F)F)C2)C1CCNCC1` [Example 302, 5-(4-(Methyl(piperidin-4-yl)amino)isoindolin-2-yl)-4-(trifluoromethyl)pyridazin-3(2H)-one] the value was 100 to 1000 nM.
Take `COc1ccc2c(n1)CN(c1cn[nH]c(=O)c1C(F)(F)F)C2` [Example 303, 5-(2-Methoxy-5,7-dihydro-6H-pyrrolo[3,4-b]pyridin-6-yl)-4-(trifluoromethyl)pyridazin-3(2H)-one]: the 50% inhibitory concentration (IC50) was less than 100 nM.
Then `O=c1[nH]ncc(N2Cc3ccc(Cl)nc3C2)c1C(F)(F)F` [Example 304, 5-(2-Chloro-5,7-dihydro-6H-pyrrolo[3,4-b]pyridin-6-yl)-4-(trifluoromethyl)pyridazin-3(2H)-one], with less than 100 nM; and `O=c1[nH]ncc(N2Cc3cccc(N4CCC(O)C4)c3C2)c1C(F)(F)F` (stereo not shown) [Example 305, 5-(4-(3-Hydroxypyrrolidin-1-yl)isoindolin-2-yl)-4-(trifluoromethyl)pyridazin-3(2H)-one 2,2,2-trifluoroacetic acid], with less than 100 nM; and `NC1CCN(c2cccc3c2CN(c2cn[nH]c(=O)c2C(F)(F)F)C3)C1` (stereo not shown) [Example 306, 5-(4-(3-Aminopyrrolidin-1-yl)isoindolin-2-yl)-4-(trifluoromethyl)pyridazin-3(2H)-one], with less than 100 nM.
For `O=c1[nH]ncc(N2Cc3cccc(NC4CCCOC4)c3C2)c1C(F)(F)F` (stereo not shown) [Example 307, 5-(4-((Tetrahydro-2H-pyran-3-yl)amino)isoindolin-2-yl)-4-(trifluoromethyl)pyridazin-3(2H)-one] the value was 100 to 1000 nM; for `COc1cccc2c1CN(c1cn[nH]c(=O)c1C(F)(F)F)C2C` (stereo not shown) [Example 308, 5-(4-Methoxy-1-methylisoindolin-2-yl)-4-(trifluoromethyl)pyridazin-3(2H)-one], 100 to 1000 nM; for `COc1cccc2c1C(C)N(c1cn[nH]c(=O)c1C(F)(F)F)C2` (stereo not shown) [Example 309, 5-(7-Methoxy-1-methylisoindolin-2-yl)-4-(trifluoromethyl)pyridazin-3(2H)-one], 100 to 1000 nM.
Then `CCC1c2ccccc2CN1c1cn[nH]c(=O)c1C(F)(F)F` (stereo not shown) [Example 310, 5-(1-Ethylisoindolin-2-yl)-4-(trifluoromethyl)pyridazin-3(2H)-one], with not below 1000 nM; and `COCCOc1ccc2c(n1)CN(c1cn[nH]c(=O)c1C(F)(F)F)C2` [Example 311, 5-(2-(2-Methoxyethoxy)-5,7-dihydro-6H-pyrrolo[3,4-b]pyridin-6-yl)-4-(trifluoromethyl)pyridazin-3(2H)-one], with 100 to 1000 nM; and `O=c1[nH]ncc(N2Cc3ccc(OCCO)nc3C2)c1C(F)(F)F` [Example 312, 5-(2-(2-Hydroxyethoxy)-5,7-dihydro-6H-pyrrolo[3,4-b]pyridin-6-yl)-4-(trifluoromethyl)pyridazin-3(2H)-one], with 100 to 1000 nM.
Compound `O=c1[nH]ncc(N2Cc3ccc(OCc4cccnc4)nc3C2)c1C(F)(F)F` [Example 313, 5-(2-(Pyridin-3-ylmethoxy)-5,7-dihydro-6H-pyrrolo[3,4-b]pyridin-6-yl)-4-(trifluoromethyl)pyridazin-3(2H)-one] displayed a half-inhibitory concentration (IC50) of less than 100 nM.
Then `CN1CCN(c2cccc3c2CN(c2cn[nH]c(=O)c2C(F)(F)F)C3)CC1` [Example 314, 5-(4-(4-Methylpiperazin-1-yl)isoindolin-2-yl)-4-(trifluoromethyl)pyridazin-3(2H)-one], with 100 to 1000 nM.
For `COc1cc2c(cc1F)CN(c1cn[nH]c(=O)c1C(F)(F)F)C2C` (stereo not shown) [Example 315, 5-(5-Fluoro-6-methoxy-1-methylisoindolin-2-yl)-4-(trifluoromethyl)pyridazin-3(2H)-one] the value was 100 to 1000 nM; for `O=c1[nH]ncc(N2Cc3ccc(OCCN4CCOCC4)nc3C2)c1C(F)(F)F` [Example 316, 5-(2-(2-Morpholinoethoxy)-5,7-dihydro-6H-pyrrolo[3,4-b]pyridin-6-yl)-4-(trifluoromethyl)pyridazin-3(2H)-one], 100 to 1000 nM.
Then `NCCOc1ccc2c(n1)CN(c1cn[nH]c(=O)c1C(F)(F)F)C2` [Example 317, 5-(2-(2-Aminoethoxy)-5,7-dihydro-6H-pyrrolo[3,4-b]pyridin-6-yl)-4-(trifluoromethyl)pyridazin-3(2H)-one formic acid], with 100 to 1000 nM; and `CNCCOc1ccc2c(n1)CN(c1cn[nH]c(=O)c1C(F)(F)F)C2` [Example 318, 5-(2-(2-(Methylamino)ethoxy)-5,7-dihydro-6H-pyrrolo[3,4-b]pyridin-6-yl)-4-(trifluoromethyl)pyridazin-3(2H)-one], with 100 to 1000 nM.
`CN(C)CCOc1ccc2c(n1)CN(c1cn[nH]c(=O)c1C(F)(F)F)C2` [Example 319, 5-(2-(2-(Dimethylamino)ethoxy)-5,7-dihydro-6H-pyrrolo[3,4-b]pyridin-6-yl)-4-(trifluoromethyl)pyridazin-3(2H)-one]: the half-maximal inhibitory concentration (IC50) is 100 to 1000 nM.
Then `Cc1ccc2c(n1)CN(c1cn[nH]c(=O)c1C(F)(F)F)C2` [Example 320, 5-(2-Methyl-5,7-dihydro-6H-pyrrolo[3,4-b]pyridin-6-yl)-4-(trifluoromethyl)pyridazin-3(2H)-one], with less than 100 nM.
For `O=c1[nH]ncc(N2Cc3ccc(OCc4ccncc4)nc3C2)c1C(F)(F)F` [Example 321, 5-(2-(Pyridin-4-ylmethoxy)-5,7-dihydro-6H-pyrrolo[3,4-b]pyridin-6-yl)-4-(trifluoromethyl)pyridazin-3(2H)-one] the value was less than 100 nM; for `NCc1ccc2c(c1)CN(c1cn[nH]c(=O)c1C(F)(F)F)C2` [Example 322, 5-(5-(Aminomethyl)isoindolin-2-yl)-4-(trifluoromethyl)pyridazin-3(2H)-one], 100 to 1000 nM.

One may read the IC50 as the concentration at which inhibition is half-maximal. High values mean weaker potency, low ones greater potency.
